From BindingDB's records for patent US20240335431 (Acerta Pharma, 2024) come the findings set out here.

For this assay, the target named is T1, Menin (Homo sapiens, UniProt O00255).
T1 sequence (O00255 whole entry): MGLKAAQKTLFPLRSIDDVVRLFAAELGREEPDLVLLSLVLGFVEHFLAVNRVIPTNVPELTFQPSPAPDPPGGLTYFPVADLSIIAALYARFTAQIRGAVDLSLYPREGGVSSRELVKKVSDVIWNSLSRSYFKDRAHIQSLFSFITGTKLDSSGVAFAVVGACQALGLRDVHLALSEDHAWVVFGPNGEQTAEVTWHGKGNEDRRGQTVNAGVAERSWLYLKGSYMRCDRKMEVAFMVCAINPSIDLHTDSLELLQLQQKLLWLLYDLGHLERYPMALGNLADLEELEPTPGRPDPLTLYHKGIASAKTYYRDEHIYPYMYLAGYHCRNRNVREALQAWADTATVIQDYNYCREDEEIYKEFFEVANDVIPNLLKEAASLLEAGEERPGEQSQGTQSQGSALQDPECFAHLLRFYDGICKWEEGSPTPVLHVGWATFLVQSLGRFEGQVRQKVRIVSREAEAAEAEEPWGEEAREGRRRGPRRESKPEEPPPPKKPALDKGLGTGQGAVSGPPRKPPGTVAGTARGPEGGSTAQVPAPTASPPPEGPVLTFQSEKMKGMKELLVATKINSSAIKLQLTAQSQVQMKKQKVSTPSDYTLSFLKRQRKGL
Briefly: Fluorescence Polarization (FP) Assay. The procedure: Compounds were tested in a biochemical binding assay using Menin protein at 2 nM (N6his-tev-Menin_4i80, PB-20-1459) and the substrate cRho110-Ahx-MBM1/MBM2 peptide (UbiQ, UbiQ-Q20201030; cRh110-Ahx-[…]-QRVPALLLPPG-NH2) at 1 nM.384 Low volume black plates (Corning #4514) were used. 5 μL/well compound or 3% DMSO was added at 10-fold serial dilutions in DMSO from 10 μM. 5 μL/well cRho110-Ahx-MBM1/MBM2 peptide or binding buffer (50 mM Tris pH 7.5, 50 mM NaCl, 1 mM TCEP, 0.01% BGG, 0.01% Brij-35) was added to all wells. 5 μL/well Menin protein or binding buffer (50 mM Tris pH 7.5, 50 mM NaCl, 1 mM TCEP, 0.01% BGG, 0.01% Brij-35) was added to all wells. Plates were read on an EnVision plate reader (Perkin Elmer) with excitation at 480 nm and emission at 535 nm P+S, and measured every 5 minutes for 180 minutes.
The IC50 is the concentration that inhibits the measured activity by half. The low end stands for greater potency, the high end for weaker potency. `CCN(C(=O)c1cc(F)ccc1-n1c(C)c(C(=O)C2CCN(C(=O)[C@H]3N[C@@H]4CC[C@H]3C4)CC2)c2ccncc21)C(C)C` [US20240335431, Example 46] registered a half-maximal inhibitory concentration (IC50) of 34 nM. In turn, `CCN(C(=O)c1cc(F)ccc1-n1cc(C(=O)C2CCN(C(=O)[C@H]3N[C@H]4C[C@@H]3[C@@H](F)C4)CC2)c2ccncc21)C(C)C` [US20240335431, Example 30] gave an IC50 of 17 nM.

Regarding `CC(C)c1ncsc1-c1cc(F)ccc1-n1cc(C(=O)C2CN(C(=O)[C@H]3N[C@@H]4CC[C@H]3C4)C2)c2ccncc21` [US20240335431, Example 12], the IC50 was found to be 6 nM.

Molecule `CC(C)N(C(=O)c1cc(F)ccc1-n1cc(C(=O)[C@@H]2CCCN(C(=O)[C@H]3N[C@@H]4CC[C@H]3C4)CC2)c2ccncc21)C(C)C` (relative stereo) [US20240335431, Example 45] showed a 50% inhibitory concentration (IC50) of 36 nM. The result for `CC(C)N(C(=O)c1cc(F)ccc1-n1cc(C(=O)[C@@H]2CCN(C[C@H]3CC[C@H](NS(C)(=O)=O)CC3)C2)c2ccncc21)C(C)C` [US20240335431, Example 4] reads 54 nM; that for `CCN(C(=O)c1cc(F)ccc1-n1c(C)c(C(=O)C2CCN(C(=O)[C@@H]3CCC(C)(C)N3)CC2)c2ccncc21)C(C)C` (single isomer, unassigned) [US20240335431, Example 50-1], 5500 nM.

`CC(C)n1nccc1-c1cc(F)ccc1-n1cc(C(=O)C2CCN(C(=O)[C@H]3N[C@@H]4CC[C@H]3C4)CC2)c2ccncc21` [US20240335431, Example 36] yielded an IC50 of 24 nM. Next, `Cc1c(C(=O)[C@@H]2CCN(C(=O)[C@@H]3CC[C@@H](C)N3)[C@@H](C)C2)c2ccncc2n1-c1ccc(F)cc1C(=O)N(C(C)C)C(C)C` [US20240335431, Example 64]: 84 nM; `CC(C)N(C(=O)c1cc(F)ccc1-n1cc(C(=O)[C@@H]2CCN(C(=O)[C@H]3N[C@@H]4CC[C@H]3C4)C2)c2ccncc21)C(C)C` [US20240335431, Example 3]: 25 nM. Turning to `CC(C)N(C(=O)c1cc(F)ccc1-n1cc(C(=O)C2CCN(C(=O)[C@H]3NC[C@@H]4CC[C@@H]43)CC2)c2ccncc21)C(C)C` (relative stereo) [US20240335431, Example 25], the midpoint of inhibition, the IC50, lay at 27 nM.

In the case of `CC(C)c1ccncc1-c1cc(F)ccc1-n1cc(C(=O)C2CCN(C(=O)[C@H]3N[C@@H]4CC[C@H]3C4)CC2)c2ccncc21` [US20240335431, Example 41], the half-maximal inhibitory concentration (IC50) was 10 nM.

Turning to `CCN(C(=O)c1cc(F)ccc1-n1cc(C(=O)C2CN(C(=O)[C@H]3NC4CCC3CC4)C2)c2ccncc21)C(C)C` [US20240335431, Example 9], the 50% inhibitory concentration (IC50) came out at 51 nM. `Cc1c(C(=O)C2CCN(C(=O)[C@@H]3CCC4(CC4)N3)CC2)c2ccncc2n1-c1ccc(F)cc1C(=O)N1[C@H](C)COC[C@H]1C` (single isomer, unassigned) [US20240335431, Example 58-1]: half-maximal inhibition (IC50) required 351 nM. As to `Cc1c(C(=O)C2CCN(C(=O)[C@@H]3CC[C@H](C)N3)CC2)c2ccncc2n1-c1ccc(F)cc1C(=O)N(C(C)C)C(C)C` [US20240335431, Example 60], it took 105 nM to reach half-maximal inhibition (IC50). Consider `CC(C)N(C(=O)c1cc(F)ccc1-n1cc(C(=O)C2CCN(C(=O)[C@@H]3CC4(CC4)CN3)CC2)c2ccncc21)C(C)C` [US20240335431, Example 26], for which the IC50 turned out to be 43 nM. In turn, `CCN(C(=O)c1cc(F)ccc1-n1c(C)c(C(=O)C2CCN(C(=O)[C@H]3NC[C@@H]4C[C@@H]43)CC2)c2ccncc21)C(C)C` [US20240335431, Example 47] registered a half-inhibitory concentration (IC50) of 15 nM. Take `CC(C)N(C(=O)c1cc(F)ccc1-n1cc(C(=O)C2CCN(C(=O)[C@@H]3CCC4(CC4)N3)CC2)c2ccncc21)C(C)C` [US20240335431, Example 24]: the IC50 is 19 nM. The result for `CC(C)N(C(=O)c1cc(F)ccc1-n1cc(C(=O)[C@H]2CCN(C[C@H]3CC[C@H](NS(C)(=O)=O)CC3)C2)c2ccncc21)C(C)C` [US20240335431, Example 1] reads 29 nM; that for `CC(C)N(C(=O)c1cc(F)ccc1-n1cc(C(=O)C2CCN(C(=O)[C@H]3NC[C@@H]4CCC[C@@H]43)CC2)c2ccncc21)C(C)C` [US20240335431, Example 21], 16 nM; that for `CC(C)c1ncncc1-c1cc(F)ccc1-n1cc(C(=O)C2CCN(C(=O)[C@H]3N[C@@H]4CC[C@H]3C4)CC2)c2ccncc21` [US20240335431, Example 37], 9 nM. `CC(C)N(C(=O)c1cc(F)ccc1-n1cc(C(=O)C2CCN(C(=O)[C@H]3N[C@H]4C[C@@H]3[C@@H](F)C4)CC2)c2ccncc21)C(C)C` [US20240335431, Example 22] yielded a half-inhibitory concentration (IC50) of 25 nM. In turn, `CC(C)N(C(=O)c1cc(F)ccc1-n1cc(C(=O)C2CN(C(=O)[C@H]3N[C@H]4C[C@@H]3[C@@H](F)C4)C2)c2ccncc21)C(C)C` [US20240335431, Example 7] gave a concentration for half-maximal inhibition (IC50) of 24 nM.

For `CC(C)c1ncccc1-c1cc(F)ccc1-n1cc(C(=O)C2CN(C(=O)[C@H]3N[C@@H]4CC[C@H]3C4)C2)c2ccncc21` [US20240335431, Example 10], half-maximal inhibition (IC50) was put at 4 nM. Next, `CC(C)c1ccccc1-c1cc(F)ccc1-n1cc(C(=O)C2CCN(C(=O)[C@H]3N[C@@H]4CC[C@H]3C4)CC2)c2ccncc21` [US20240335431, Example 39]: 7 nM. The molecule `Cc1c(C(=O)C2CCN(C(=O)[C@H]3NC[C@@H]4C[C@@H]43)CC2)c2ccncc2n1-c1ccc(F)cc1-c1cnccc1C(C)C` [US20240335431, Example 54] yielded an IC50 of 15 nM. The result for `CC(C)c1ncccc1-c1cc(F)ccc1-n1cc(C(=O)C2CCN(C(=O)[C@H]3N[C@@H]4CC[C@H]3C4)CC2)c2ccncc21` [US20240335431, Example 38] reads 13 nM; that for `CC(C)N(C(=O)c1cc(F)ccc1-n1cc(C(=O)C2CCN(C(=O)[C@@H]3CCC(C)(C)N3)CC2)c2ccncc21)C(C)C` [US20240335431, Example 27], 25 nM; that for `Cc1c(C(=O)[C@@H]2CCN(C(=O)[C@@H]3CC[C@H](C)N3)[C@@H](C)C2)c2ccncc2n1-c1ccc(F)cc1C(=O)N(C(C)C)C(C)C` [US20240335431, Example 62], 76 nM. The result for `CCN(C(=O)c1cc(F)ccc1-n1c(C)c(C(=O)[C@@H]2CCN(C(=O)[C@@H]3CC[C@H](C)N3)[C@@H](C)C2)c2ccncc21)C(C)C` [US20240335431, Example 63] reads 59 nM; that for `CC(C)N(C(=O)c1cc(F)ccc1-n1cc(C(=O)C2CCN(C(=O)[C@H]3N[C@@H]4CC[C@H]3C4)CC2)c2ccncc21)C(C)C` [US20240335431, Example 16], 21 nM. Take `CCN(C(=O)c1cc(F)ccc1-n1c(C)c(C(=O)[C@@H]2CCN(C(=O)[C@@H]3CC[C@@H](C)N3)[C@@H](C)C2)c2ccncc21)C(C)C` [US20240335431, Example 65]: the concentration for half-maximal inhibition (IC50) stood at 79 nM. The result for `C=C1C[C@@H]2CC[C@H]1[C@@H](C(=O)N1CCC(C(=O)c3cn(-c4ccc(F)cc4C(=O)N(C(C)C)C(C)C)c4cnccc34)CC1)N2` [US20240335431, Example 18] reads 37 nM. `Cc1c(C(=O)C2CCN(C(=O)[C@@H]3CCC(C)(C)N3)CC2)c2ccncc2n1-c1ccc(F)cc1C(=O)N(C(C)C)C(C)C` (single isomer, unassigned) [US20240335431, Example 56-1] returned a 50% inhibitory concentration (IC50) of 2150 nM.

As to `CC(C)N(C(=O)c1cc(F)ccc1-n1cc(C(=O)C2CCN(C[C@H]3CC[C@H](NS(C)(=O)=O)CC3)CC2)c2ccncc21)C(C)C` [US20240335431, Example 17], the midpoint of inhibition, the IC50, lay at 21 nM. Turning to `CC(C)N(C(=O)c1cc(F)ccc1-n1cc(C(=O)C2CCN(C(=O)[C@H]3NC[C@@H]4C[C@@H]43)CC2)c2ccncc21)C(C)C` [US20240335431, Example 19], the concentration for half-maximal inhibition (IC50) is 16 nM.

`CCN(C(=O)c1cc(F)ccc1-n1c(C)c(C(=O)[C@@H]2CCN(C(=O)[C@@H]3CCC4(CC4)N3)[C@@H](C)C2)c2ccncc21)C(C)C` (single isomer, unassigned; form 2) [US20240335431, Example 52-2]: the IC50 is 18 nM.

Take `CCN(C(=O)c1cc(F)ccc1-n1c(C)c(C(=O)C2CCN(C(=O)[C@@H]3CCC4(CC4)N3)CC2)c2ccncc21)C(C)C` (single isomer, unassigned) [US20240335431, Example 49-1]: half-maximal inhibition (IC50) required 2140 nM. The result for `CCN(C(=O)c1cc(F)ccc1-n1c(C)c(C(=O)[C@@H]2CCN(C(=O)[C@@H]3CCC4(CC4)N3)[C@@H](C)C2)c2ccncc21)C(C)C` (single isomer, unassigned; form 1) [US20240335431, Example 52-1] reads 16 nM.
